Measurements published in patent US6667333B2, “Herbicidal 3-(4,5 dihydroisoxazole- 3 yl) substituted benzoycyclohexenone derivatives” (BASF Aktiengesellschaft, priority 1999, dated 2003).

Legend:
Polygonum persicaria = assay: greenhouse post-emergence herbicidal test; assay type: in vivo, Polygonum persicaria (lady's-thumb); details: application rates of 0.25 or 0.125 kg/ha, 2 to 4 weeks
Excerpt: (§1) The cultivation containers used were plastic flower pots containing loamy sand with approximately 3.0% of humus as the substrate. The seeds of the test plants were sown separately for each species.
(§2) For the post-emergence treatment, the test plants were first grown to a height of from 3 to 15 cm, depending on the plant habit, and only then treated with the active compounds which had been suspended or emulsified in water. The test plants were for this purpose either sown directly and grown in the same containers, or they were first grown separately as seedlings and transplanted into the test containers a few days prior to treatment. The application rate for the post-emergence treatment was 0.25 or 0.125 kg of a.s. (active substance)/ha.
(§3) Depending on the species, the plants were kept at 10-25° C. or 20-35° C. The test period extended over 2 to 4 weeks. During this time, the plants were tended, and their response to the individual treatments was evaluated.
(§4) The evaluation was carried out using a scale from 0 to 100. 100 means no emergence of the plants, or complete destruction of at least the aerial parts and 0 means no damage, or normal course of growth.
(§5) The plants used in the greenhouse experiments were of the following species: […]

Echinochloa crus galli = assay: greenhouse post-emergence herbicidal test; assay type: in vivo, Echinochloa crus galli (barnyardgrass); details: application rates of 0.25 or 0.125 kg/ha, 2 to 4 weeks
Excerpt: as §1, §2, §3, §4, §5

Brachiaria plantaginea = assay: greenhouse post-emergence herbicidal test; assay type: in vivo, Brachiaria plantaginea (alexandergrass); details: application rates of 0.25 or 0.125 kg/ha, 2 to 4 weeks
Excerpt: as §1, §2, §3, §4, §5

Abutilon theophrasti = assay: greenhouse post-emergence herbicidal test; assay type: in vivo, Abutilon theophrasti (velvet leaf); details: application rates of 0.25 or 0.125 kg/ha, 2 to 4 weeks
Excerpt: as §1, §2, §3, §4, §5

Avena fatua = assay: greenhouse post-emergence herbicidal test; assay type: in vivo, Avena fatua (wild oat); details: application rates of 0.25 or 0.125 kg/ha, 2 to 4 weeks
Excerpt: as §1, §2, §3, §4, §5

Chenopodium album = assay: greenhouse post-emergence herbicidal test; assay type: in vivo, Chenopodium album (lamb's-quarters); details: application rates of 0.25 or 0.125 kg/ha, 2 to 4 weeks
Excerpt: as §1, §2, §3, §4, §5

| Compound | melting point [°C] | further results |
| --- | --- | --- |
| Cc1c(C(=O)C2=C(O)CC(C)(C)CC2=O)ccc(S(C)(=O)=O)c1C1=NOC2CC12 (centres unmarked) [Compound 2.1] | 102 | post-emergence action (Polygonum persicaria): very good; post-emergence action (Echinochloa crus galli): very good; post-emergence action (Brachiaria plantaginea): very good; post-emergence action (Abutilon theophrasti): very good; post-emergence action (Avena fatua): very good; post-emergence action (Chenopodium album): very good |
| Cc1c(C(=O)C2=C(O)C(C)CC(C)C2=O)ccc(S(C)(=O)=O)c1C1=NOC2CC12 (centres unmarked) [Compound 2.3, 2-[2-Methyl-3-(2-oxa-3-azabicyclo[3.1.0]hex-3-en-4-yl)-4-methylsulfonylbenzoyl]-1-hydroxy-4,6-dimethylcyclohex-1-en-3-one] | 90 to 96 | – |
| CSC1(C)CCC(=O)C(C(=O)c2ccc(S(C)(=O)=O)c(C3=NOC4CC34)c2C)=C1O (centres unmarked) [Compound 2.5] | 100 to 106 | – |
| CC1(C)CC(=O)C(C(=O)c2ccc(S(C)(=O)=O)c(C3=NOC4CC34)c2Cl)=C(O)C1 (centres unmarked) [Compound 2.7] | 101 to 105 | – |
| Cc1c(C(=O)C2=C(O)CC(C)(C)CC2=O)ccc(S(C)(=O)=O)c1C1=NOC2(C)CC12 (centres unmarked) [Compound 2.8] | 112 to 120 | – |
| Cc1c(C(=O)C2=C(O)C(C)CC(C)C2=O)ccc(S(C)(=O)=O)c1C1=NOC2(C)CC12 (centres unmarked) [Compound 2.12] | 98 to 112 | – |
| Cc1c(C(=O)C2=C(O)CC(C)(C)CC2=O)ccc(S(C)(=O)=O)c1C1=NOC2CC12C (centres unmarked) [Compound 2.13] | 120 to 127 | – |
| Cc1c(C(=O)C2=C(O)C(C)(C)CCC2=O)ccc(S(C)(=O)=O)c1C1=NOC2(C)CC12 (centres unmarked) [Compound 2.14] | 120 to 130 | – |
